Test results taken from patent US10689378B2, “Triazolopyridine compounds and uses thereof” (Novartis AG, priority 2016, dated 2020).
Like-named read-outs stand apart in the source and are kept apart here.

How the values were obtained:
[1] = system: H3K27 methylation in G401 cell; assay: ELISA (H3K27 methylation) assay in G401 cells; assay type: cell-based, human; conditions: Homo sapiens
Method in brief: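 G401 cells treated 48 h with 3-fold dilutions (8 or 12 points, top 20 μM). Acid-extracted histones probed by ELISA for H3K27me3 or H3K27me2 with ECL readout, normalized to total H3. Percent inhibition versus DMSO fitted to dose-response curve for IC50.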

[2] = biological target: T1, EED (1-441)-His protein (Homo sapiens, UniProt O75530); assay: EED-H3K27Me3 peptide competition binding assay by AlphaScreen
T1 construct: 30 nM EED (1-441)-His protein
T1 sequence (O75530 whole entry): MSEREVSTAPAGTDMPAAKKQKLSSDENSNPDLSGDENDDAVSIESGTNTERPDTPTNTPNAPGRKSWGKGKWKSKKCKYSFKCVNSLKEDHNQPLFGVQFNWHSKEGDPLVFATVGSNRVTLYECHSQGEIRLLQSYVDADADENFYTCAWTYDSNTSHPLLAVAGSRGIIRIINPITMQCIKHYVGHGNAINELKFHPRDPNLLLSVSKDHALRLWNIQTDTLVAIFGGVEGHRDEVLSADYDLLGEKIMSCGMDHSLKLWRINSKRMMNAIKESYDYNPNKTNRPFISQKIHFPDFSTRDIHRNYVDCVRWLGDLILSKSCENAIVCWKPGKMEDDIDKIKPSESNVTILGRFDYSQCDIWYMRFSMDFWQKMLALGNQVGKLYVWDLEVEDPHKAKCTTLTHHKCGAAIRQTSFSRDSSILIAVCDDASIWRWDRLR
Method in brief: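 Serially diluted compound (12 points, 3-fold) incubated 20 min with 30 nM EED(1-441)-His and 15 nM biotin-H3K27Me3(19-33) peptide in 25 mM HEPES pH 8, 0.02% Tween-20, 0.5% BSA. Ni-chelate acceptor/streptavidin donor beads (10 μg/mL each) added, 1 h rt dark; 615 nm emission normalized to controls, dose-response fit for IC50.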

[3] = biological target: wild type PRC2 (wtPRC2) complex (Homo sapiens, UniProt O75530); assay: EED LC-MS assay (SAH production by PRC2); assay type: biochemical
Sequence of wild type PRC2 (wtPRC2) complex (O75530 whole entry): as above
Sequence of wild type PRC2 (wtPRC2) complex (Q15910 whole entry partner): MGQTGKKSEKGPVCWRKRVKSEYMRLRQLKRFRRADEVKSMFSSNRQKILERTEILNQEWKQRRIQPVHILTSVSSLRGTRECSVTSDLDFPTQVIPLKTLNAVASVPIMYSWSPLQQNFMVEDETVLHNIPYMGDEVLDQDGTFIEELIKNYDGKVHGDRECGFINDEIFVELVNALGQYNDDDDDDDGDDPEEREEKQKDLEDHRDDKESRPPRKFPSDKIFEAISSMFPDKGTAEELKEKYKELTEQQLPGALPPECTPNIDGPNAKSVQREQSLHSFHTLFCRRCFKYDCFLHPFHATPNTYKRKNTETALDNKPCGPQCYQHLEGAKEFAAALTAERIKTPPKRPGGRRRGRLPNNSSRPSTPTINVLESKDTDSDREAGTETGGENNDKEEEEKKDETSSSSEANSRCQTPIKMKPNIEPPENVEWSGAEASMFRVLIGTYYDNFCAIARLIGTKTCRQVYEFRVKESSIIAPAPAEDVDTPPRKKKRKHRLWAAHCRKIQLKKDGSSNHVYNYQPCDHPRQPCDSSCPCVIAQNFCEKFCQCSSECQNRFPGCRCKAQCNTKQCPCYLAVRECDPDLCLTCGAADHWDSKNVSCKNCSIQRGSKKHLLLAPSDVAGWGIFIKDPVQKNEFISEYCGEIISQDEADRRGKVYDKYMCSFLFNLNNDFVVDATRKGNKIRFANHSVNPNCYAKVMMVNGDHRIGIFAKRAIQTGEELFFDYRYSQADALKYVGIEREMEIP
Sequence of wild type PRC2 (wtPRC2) complex (Q15022 whole entry partner): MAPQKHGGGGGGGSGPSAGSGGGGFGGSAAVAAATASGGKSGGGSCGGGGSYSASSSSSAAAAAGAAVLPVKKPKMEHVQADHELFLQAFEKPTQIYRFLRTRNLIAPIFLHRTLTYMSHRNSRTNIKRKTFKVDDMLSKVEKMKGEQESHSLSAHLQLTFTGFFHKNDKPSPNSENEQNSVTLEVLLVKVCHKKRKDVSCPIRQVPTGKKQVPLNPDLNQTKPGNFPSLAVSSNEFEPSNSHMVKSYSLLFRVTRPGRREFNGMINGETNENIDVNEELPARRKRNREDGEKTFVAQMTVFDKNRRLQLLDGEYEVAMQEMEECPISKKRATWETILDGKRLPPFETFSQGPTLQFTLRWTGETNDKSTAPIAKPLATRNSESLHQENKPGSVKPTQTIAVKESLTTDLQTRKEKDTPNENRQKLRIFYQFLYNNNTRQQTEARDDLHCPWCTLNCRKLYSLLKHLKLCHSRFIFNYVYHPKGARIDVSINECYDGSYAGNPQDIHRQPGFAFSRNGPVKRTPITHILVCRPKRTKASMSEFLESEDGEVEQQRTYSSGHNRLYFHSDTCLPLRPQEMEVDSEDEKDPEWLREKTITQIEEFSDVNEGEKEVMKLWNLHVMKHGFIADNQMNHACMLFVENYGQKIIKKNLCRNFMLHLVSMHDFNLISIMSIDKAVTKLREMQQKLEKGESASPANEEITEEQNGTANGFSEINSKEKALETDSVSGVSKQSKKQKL
Sequence of wild type PRC2 (wtPRC2) complex (Q09028 whole entry partner): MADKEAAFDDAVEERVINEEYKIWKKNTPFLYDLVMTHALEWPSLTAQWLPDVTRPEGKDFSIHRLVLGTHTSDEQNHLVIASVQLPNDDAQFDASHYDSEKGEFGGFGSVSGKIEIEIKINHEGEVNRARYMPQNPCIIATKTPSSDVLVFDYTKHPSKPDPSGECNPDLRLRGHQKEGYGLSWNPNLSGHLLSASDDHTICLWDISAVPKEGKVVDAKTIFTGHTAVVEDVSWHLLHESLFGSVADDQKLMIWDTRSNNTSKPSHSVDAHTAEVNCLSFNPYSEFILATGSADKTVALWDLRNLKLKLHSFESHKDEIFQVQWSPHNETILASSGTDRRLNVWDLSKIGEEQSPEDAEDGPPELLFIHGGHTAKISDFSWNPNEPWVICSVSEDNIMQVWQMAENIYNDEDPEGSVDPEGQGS
Sequence of wild type PRC2 (wtPRC2) complex (Q6ZN18 whole entry partner): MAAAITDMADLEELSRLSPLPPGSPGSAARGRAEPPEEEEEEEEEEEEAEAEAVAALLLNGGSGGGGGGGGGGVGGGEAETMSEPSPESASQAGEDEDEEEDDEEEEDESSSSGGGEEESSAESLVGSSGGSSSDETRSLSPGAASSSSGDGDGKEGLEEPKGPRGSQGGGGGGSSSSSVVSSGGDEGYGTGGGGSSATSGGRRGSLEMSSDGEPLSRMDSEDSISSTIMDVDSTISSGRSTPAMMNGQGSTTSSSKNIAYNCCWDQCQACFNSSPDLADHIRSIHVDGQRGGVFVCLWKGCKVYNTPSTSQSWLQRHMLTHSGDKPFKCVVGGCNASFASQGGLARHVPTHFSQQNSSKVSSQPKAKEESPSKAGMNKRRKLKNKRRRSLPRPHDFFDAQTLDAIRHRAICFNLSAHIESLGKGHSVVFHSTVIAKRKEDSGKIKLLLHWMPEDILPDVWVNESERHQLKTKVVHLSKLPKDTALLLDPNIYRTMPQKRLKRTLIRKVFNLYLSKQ
Method in brief: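 Pentameric PRC2 (EZH2, SUZ12, EED, Rbap48, AEBP), 12 nM final, preincubated 20 min with compound and SAM, then 1.5 μM biotinylated H3K27me0 peptide, 1 μM SAM, pH 8.0, 120 min at rt. SAH quantified by LC-MS/MS with d4-SAH; control-normalized activity fitted for IC50.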

[4] = G-401, read-out: (c) IC50, ELISA Qualified
[5] = read-out: (a) IC50, EED Alphascreen binding Qualified
[6] = read-out: (b) IC50, EED LC-MS Qualified
[7] = G-401, H3K27 methylation ELISA, read-out: (c) IC50 ELISA Qualified
[8] = EED-H3K27Me3 peptide competition, AlphaScreen, read-out: (a) IC50 EED Alphascreen binding Qualified
[9] = PRC2 LC-MS assay, read-out: (b) IC50 EED LC-MS Qualified
[10] = G-401, read-out: (c) IC50 ELISA Qualified
[11] = read-out: (a) IC50 EED Alphascreen binding Qualified
[12] = read-out: (b) IC50 EED LC-MS Qualified

Row | IC50 [1, 4] [nM] | IC50 [2, 5] [nM] | IC50 [3, 6] [nM] | IC50 [1, 7] [nM] | IC50 [2, 8] [nM] | IC50 [3, 9] [nM] | Structure (SMILES) | also measured
1 | 99.4 | 42 | 368 | – | – | – | COc1ccccc1CNc1ccc(-c2ccc(CCN(C)C)cc2)c2nncn12 [Example 123, 8-(4-(2-(dimethylamino)ethyl)phenyl)-N-(2-methoxybenzyl)-[1,2,4]triazolo[4,3-a] pyridin-5-amine] | –
2 | 277 | 84.2 | 294 | – | – | – | COc1cc(F)ccc1CNc1ccc(-c2ccc(CN(C)C)cc2)c2nncn12 [Example 33, 8-(4-((dimethylamino)methyl)phenyl)-N-(4-fluoro-2-methoxybenzyl)-[1,2,4] triazolo[4,3-a]pyridin-5-amine] | –
3 | 39.5 | 15.9 | 183 | – | – | – | COc1ccccc1CNc1ccc(-c2ccc(S(=O)(=O)C(C)C)cc2)c2nncn12 [Example 57, 8-(4-(isopropylsulfonyl)phenyl)-N-(2-methoxybenzyl)-[1,2,4]triazolo[4,3-a] pyridin-5-amine] | –
4 | – | – | – | 13.5 | 16.1 | 55.9 | COc1cccc(F)c1CNc1ccc(-c2ccc(S(C)(=O)=O)cc2C)c2nncn12 [Example 229, N-(2-fluoro-6-methoxybenzyl)-8-(2-methyl-4-(methylsulfonyl)phenyl)-[1,2,4]triazolo[4,3-a]pyridin-5-amine] | –
5 | 80.3 | 66.4 | 676 | – | – | – | COc1cccc(F)c1CNc1ccc(-c2ccc(O)nc2)c2nncn12 [Example 151, 5-(5-((2-fluoro-6-methoxybenzyl)amino)-[1,2,4]triazolo[4,3-a]pyridin-8-yl) pyridin-2-ol] | –
6 | – | – | – | 17.3 | 19.9 | 41.6 | COc1cccc(F)c1CNc1ccc(-c2ccc(CCO)nc2)c2nncn12 [Example 183, 2-(5-(5-((2-fluoro-6-methoxybenzyl)amino)-[1,2,4]triazolo[4,3-a]pyridin-8-yl)pyridin-2-yl)ethanol] | –
7 | 14.9 | 18.2 | 27.1 | – | – | – | CCN1CCC(S(=O)(=O)c2ccc(-c3ccc(NCc4c(F)cccc4OC)n4cnnc34)cn2)CC1 [Example 149, 8-(6-((1-ethylpiperidin-4-yl)sulfonyl)pyridin-3-yl)-N-(2-fluoro-6-methoxybenzyl)-[1,2,4]triazolo[4,3-a]pyridin-5-amine] | –
8 | – | – | – | 62.1 | 39.6 | 576 | CCc1ncccc1-c1ccc(NCc2c(F)cccc2OC)n2cnnc12 [Example 283, 8-(2-ethylpyridin-3-yl)-N-(2-fluoro-6-methoxybenzyl)-[1,2,4]triazolo[4,3-a]pyridin-5-amine] | –
9 | 3.8 | 9.5 | 785 | – | – | – | COc1ccccc1CNc1ccc(-c2cc(F)c(CN(C)C)c(F)c2)c2nncn12 [Example 43, 8-(4-((dimethylamino)methyl)-3,5-difluorophenyl)-N-(2-methoxybenzyl)-[1,2,4] triazolo[4,3-a]pyridin-5-amine] | –
10 | 34.8 | 13.6 | 106 | – | – | – | COc1cccc(F)c1CNc1ccc(-c2cccc(S(C)(=O)=O)c2)c2nncn12 [Example 142, N-(2-fluoro-6-methoxybenzyl)-8-(3-(methylsulfonyl)phenyl)-[1,2,4]triazolo[4,3-a]pyridin-5-amine] | –
11 | – | – | – | 16.5 | 20.4 | 520 | CNC(=O)c1cncc(-c2ccc(NCc3c(F)cccc3OC)n3cnnc23)c1 [Example 182, 5-(5-((2-fluoro-6-methoxybenzyl)amino)-[1,2,4]triazolo[4,3-a]pyridin-8-yl)-N-methylnicotinamide] | –
12 | – | – | – | 62.7 | 55.2 | 965 | CO/N=C(\C)c1ccc(-c2ccc(NCc3c(F)cccc3OC)n3cnnc23)cn1 [Example 214, (E)-1-(5-(5-((2-fluoro-6-methoxybenzyl)amino)-[1,2,4]triazolo[4,3-a]pyridin-8-yl)pyridin-2-yl)ethanone O-methyl oxime] | –
13 | 46.9 | 32.5 | 438 | – | – | – | COc1ccccc1CNc1ccc(-c2ccc(CN3CCOCC3)nc2)c2nncn12 [Example 38, N-(2-methoxybenzyl)-8-(6-(morpholinomethyl)pyridin-3-yl)-[1,2,4]triazolo[4,3-a] pyridin-5-amine] | –
14 | 8.7 | 10.9 | 18.8 | – | – | – | COc1cccc(F)c1CNc1ccc(-c2cccnc2C)c2nncn12 [Example 2, N-(2-Fluoro-6-methoxybenzyl)-8-(2-methylpyridin-3-yl)-[1,2,4]triazolo[4,3-a]pyridin-5-amine] | –
15 | 293 | 98.5 | 1330 | – | – | – | COc1ccccc1CNc1ccc(-c2ccccc2F)c2nncn12 [Example 47, 8-(2-fluorophenyl)-N-(2-methoxybenzyl)-[1,2,4] triazolo[4,3-a]pyridin-5-amine] | –

Continued, compound first:

Row | Structure (SMILES) | IC50 [1, 4] [nM] | IC50 [2, 5] [nM] | IC50 [3, 6] [nM] | IC50 [1, 7] [nM] | IC50 [2, 8] [nM] | IC50 [3, 9] [nM] | also measured
16 | COc1cccc(F)c1CNc1ccc(-c2nc(C)no2)c2nncn12 [Example 11, N-(2-Fluoro-6-methoxybenzyl)-8-(3-methyl-1,2,4-oxadiazol-5-yl)-[1,2,4]triazolo[4,3-a]pyridin-5-amine] | 40.5 | 30.7 | 119 | – | – | – | –
17 | COc1cccc(F)c1CNc1ccc(-c2cc(F)c(N)c(F)c2)c2nncn12 [Example 200, 8-(4-amino-3,5-difluorophenyl)-N-(2-fluoro-6-methoxybenzyl)-[1,2,4] triazolo[4,3-a]pyridin-5-amine] | – | – | – | 110 | 71.1 | 225 | –
18 | COc1cccc(F)c1CNc1ccc(-c2cn(C)nc2C(F)F)c2nncn12 [Example 313, 8-(3-(difluoromethyl)-1-methyl-1H-pyrazol-4-yl)-N-(2-fluoro-6-methoxybenzyl)-[1,2,4]triazolo[4,3-a]pyridin-5-amine] | – | – | – | 4 | 3.4 | 14.7 | –
19 | COc1cccc(F)c1CNc1ccc(-c2c(C)cnn2C)c2nncn12 [Example 370, 8-(1,4-dimethyl-1H-pyrazol-5-yl)-N-(2-fluoro-6-methoxybenzyl)-[1,2,4]triazolo[4,3-a] pyridin-5-amine] | – | – | – | – | – | – | IC50 [1, 10]: 20 nM; IC50 [2, 11]: 25.8 nM; IC50 [3, 12]: 108 nM
20 | COc1cc(F)cc(F)c1CNc1ccc(-c2cnc(OC(C)C)nc2C)c2nncn12 [Example 349, N-(2,4-difluoro-6-methoxybenzyl)-8-(2-isopropoxy-4-methylpyrimidin-5-yl)-[1,2,4]triazolo[4,3-a]pyridin-5-amine] | – | – | – | – | – | – | IC50 [1, 10]: 31.2 nM; IC50 [2, 11]: 22.9 nM; IC50 [3, 12]: 291 nM
21 | COc1cccc(F)c1CNc1ccc(-c2cc(C)nn2C)c2nncn12 [Example 288, 8-(1,3-dimethyl-1H-pyrazol-5-yl)-N-(2-fluoro-6-methoxybenzyl)-[1,2,4]triazolo[4,3-a] pyridin-5-amine] | – | – | – | 6.3 | 12.7 | 23.4 | –
22 | COc1cc(F)cc(F)c1CNc1ccc(-c2ccnn2C)c2nncn12 [Example 296, N-(2,4-difluoro-6-methoxybenzyl)-8-(1-methyl-1H-pyrazol-5-yl)-[1,2,4] triazolo[4,3-a]pyridin-5-amine] | – | – | – | 5.1 | 13 | 126 | –
23 | COc1cccc(F)c1CNc1ccc(-c2cnc(CC(C)C)nc2C)c2nncn12 [Example 4, N-(2-Fluoro-6-methoxybenzyl)-8-(2-isobutyl-4-methylpyrimidin-5-yl)-[1,2,4]triazolo[4,3a]-pyridin-5-amine] | 5.7 | 8.6 | 6.6 | – | – | – | –
24 | COc1cccc(F)c1CNc1ccc(-c2cncc(F)c2C)c2nncn12 [Example 219, 8-(5-fluoro-4-methylpyridin-3-yl)-N-(2-fluoro-6-methoxybenzyl)-[1,2,4]triazolo[4,3-a] pyridin-5-amine] | – | – | – | 26.7 | 29.1 | 213 | –
25 | COc1cccc(F)c1CNc1ccc(-c2cnc(C(=O)N(C)C)cc2C)c2nncn12 [Example 252, 5-(5-((2-fluoro-6-methoxybenzyl)amino)-[1,2,4]triazolo[4,3-a]pyridin-8-yl)-N,N,4-trimethylpicolinamide] | – | – | – | 4.4 | 14.1 | 7.9 | –
26 | COc1cccc(F)c1CNc1ccc(-c2cnc(C)cc2C)c2nncn12 [Example 268, 8-(4,6-dimethylpyridin-3-yl)-N-(2-fluoro-6-methoxybenzyl)-[1,2,4]triazolo[4,3-a] pyridin-5-amine] | – | – | – | 21.4 | 19.4 | 34 | –
27 | COc1cccc(F)c1CNc1ccc(-c2c(C)noc2C)c2nncn12 [Example 139, 8-(3,5-dimethylisoxazol-4-yl)-N-(2-fluoro-6-methoxybenzyl)-[1,2,4]triazolo[4,3-a] pyridin-5-amine] | 11.7 | 26 | 46.5 | – | – | – | –
